Experimental data: US10556854B2, “Bacterial efflux pump inhibitors” (RUTGERS, THE STATE UNIVERSITY OF NEW JERSEY, priority 2016, dated 2020)
Counter-ions that a name gives are not always drawn.

Experiments:
P. aeruginosa = assay: MIC-based assay for potentiation of antibiotics that are known efflux pump substrates (Test A), P. aeruginosa; format: cell-based; conditions: fold lowering of MIC of antibiotic (e.g., clarithromycin and levofloxacin) with EPI compound at 1.6 to 12.5 μg/mL; Pseudomonas aeruginosa ATCC 27853
From the text: (§1) The ability of a compound disclosed herein to inhibit a bacterial efflux pump can be determined using a method like Test A or Test B as described in Example 13 and as shown in Table 1.
(§2) Test A. Minimum Inhibitory Concentration (MIC)-Based Assay for Potentiation of Antibiotics that are Known Efflux Pump Substrates:
(§3) MIC-based assays were used to evaluate the impact of potential efflux pump inhibiting (EPI) compounds on the MICs of antibiotics (e.g., clarithromycin and levofloxacin) known to be substrates for Gram-negative bacterial efflux pumps. The assays were conducted in accordance with Clinical and Laboratory Standards Institute (CLSI) guidelines for broth microdilution, with the modification that assays were conducted in the presence and absence of the test EPI compounds. When present, the EPI compounds were added to cation-adjusted Mueller-Hinton (CAMH) broth (Becton, Dickinson and Co., Franklin Lakes, N.J.) at a final concentration in the range of 1.6 to 12.5 μg/mL.
(§4) Log-phase Gram-negative bacteria were added to 96-well microtiter plates (at 5×10^5 colony forming units (CFU) per mL) containing two-fold serial dilutions of antibiotic in CAMH broth either in the absence or presence of the test EPI compounds. In all assays, each serial dilution of antibiotic was present in duplicate. The final volume in each well was 0.1 mL, and the microtiter plates were incubated aerobically for 24 hours at 37° C. Bacterial growth was then monitored by measuring the optical density (OD) at 600 nm using a VersaMax® plate reader (Molecular Devices, Inc., Sunnyvale, Calif.), with the MIC being defined as the lowest compound concentration at which growth was ≥90% inhibited compared to antibiotic-free control. The following Gram-negative bacterial strains were included in these assays: • Escherichia coli ATCC 25922 • Klebsiella pneumoniae ATCC 13883 and ATCC 10031 • Pseudomonas aeruginosa ATCC 27853. Test B. Fluorescence-Based Cellular Assay for Efflux Inhibition: […]

E. coli = assay: MIC-based assay for potentiation of antibiotics that are known efflux pump substrates (Test A), E. coli; format: cell-based; conditions: fold lowering of MIC of antibiotic (e.g., clarithromycin and levofloxacin) with EPI compound at 1.6 to 12.5 μg/mL; Escherichia coli ATCC 25922
From the text: as §1, §2, §3, §4

SMILES	Active in P. aeruginosa (P. aeruginosa)	Active in E. coli (E. coli)
NC[C@@H](N)CCNC(CCc1ccccc1)CCc1ccccc1 [Example 4, (S)—N^4-(1,5-diphenylpentan-3-yl)butane-1,2,4-triamine 3 TFA]	≥2x	≥2x
NCC[C@H](N)CCNC(CCc1ccccc1)CCc1ccccc1 [Example 5, (S)—N^1-(1,5-Diphenylpentan-3-yl)pentane-1,3,5-triamine 3 TFA]	≥16x	≥32x
NCC(N)COC(CCc1ccccc1)CCc1ccccc1 (stereo not shown) [Example 11, 3-((1,5-diphenylpentan-3-yl)oxy)propane-1,2-diamine]	<2x	<2x
NCCC[C@H](N)CNC(CCc1ccccc1)CCc1ccccc1 [Example 1, (S)—N^1-(1,5-Diphenylpentan-3-yl)pentane-1,2,5-triamine 3 TFA]	<2x	≥8x
NCCC[C@H](N)CNCC(CCc1ccccc1)CCc1ccccc1 [Example 7, (S)—N^1-(2-phenethyl-4-phenylbutyl)pentane-1,2,5-triamine 3TFA]	≥32x	≥32x
NCC(N)COCC(CCc1ccccc1)CCc1ccccc1 (stereo not shown) [Example 12, 3-(2-phenethyl-4-phenylbutoxy)propane-1,2-diamine]	<2x	8 x
NC[C@@H](N)CCCNCC(CCc1ccccc1)CCc1ccccc1 [Example 8, (S)—N^5-(2-phenethyl-4-phenylbutyl)pentane-1,2,5-triaminium 2,2,2-trifluoroacetate]	≥32x	≥32x
CC(C)C(N)CC[C@H](N)CNC(CCc1ccccc1)CCc1ccccc1.Cl.Cl.Cl (stereo partly drawn) [Example 10, (2S)—N^1-(1,5-diphenylpentan-3-yl)-6-methylheptane-1,2,5-triaminium chloride]	<2x	≥256 x
NC[C@@H](N)CCCNC(CCc1ccccc1)CCc1ccccc1 [Example 2, (S)—N^5-(1,5-diphenylpentan-3-yl)pentane-1,2,5-triamine 3 TFA]	≥4x	≥16x
CC(C)C(N)CC[C@H](N)CNCC(CCc1ccccc1)CCc1ccccc1 (stereo partly shown) [Example 9]	<2x	≥128x
NCC[C@H](N)CNC(CCc1ccccc1)CCc1ccccc1 [Example 3, (S)—N^1-(1,5-diphenylpentan-3-yl)butane-1,2,4-triamine 3TFA]	≥2x	≥4x
